Test results published in patent publication US20230272460A1, “Method for Targeted Nucleic Acid Cleavage” (Cambridge Enterprise Limited, priority 2020, published 2023).

Test system: 18S and BRD4 transcripts in MOLM13 cells
Test: Cellular RNA degradation reactions (acCLICK-Seq), RT-qPCR
Type: cell-based, human
Experimental: MOLM13 cells were suspended RPMI-1640 media (Gibco) supplemented with 10% v/v FBS and 1% v/v penicillin/streptomycin/L-glutamine at a density of 1,000,000 cells mL^-1. The cells were incubated for 30 min at 37° C. followed by addition of ethyl-3-butynoate at a final concentration of 200 μM. Treated cells were incubated for further 24 h at 37° C. […] Levels of specific RNAs were measured using fast mode of QuantStudio 3 Real-Time PCR System (Applied Biosystems) and PowerUpTM SYBR Green Master Mix (Applied Biosystems) according to the manufacturer's instructions. In the qPCR analysis RNA levels were normalised to the 5S gene ([…]) or the GAPDH gene (glycoCLICK-seq). These housekeeping gene was chosen as their levels fluctuated the least under various conditions tested.

Q: `C#CCC(=O)OCC` [ethyl-3-butynoate, Ethyl-3-butynoate] was tested. Which “relative expression levels of 18S and BRD4 transcripts, clicked versus non-clicked control cells” value (WT MOLM13, ethyl-3-butynoate 200 μM 24 h, then click-degrader 1 400 μM CuAAC) did it give?
A: reduction

Q: What about the “expression levels of 18S and BRD4 transcripts in clicked cells” value (cells with NAT10 knocked-out) of the same molecule?
A: rescued
